Read-outs that look alike come from different tables or passages of the source.

What all share (type): cell-based
For experiment [1], the target named is T1, hM1 (human Muscarinic receptor subtype 1) (Homo sapiens, UniProt P11229).
T1 construct: expressed in transfected cells; host or cells: CHO cells (Chinese hamster ovary cells, ATCC)
T1 sequence (P11229 1-460): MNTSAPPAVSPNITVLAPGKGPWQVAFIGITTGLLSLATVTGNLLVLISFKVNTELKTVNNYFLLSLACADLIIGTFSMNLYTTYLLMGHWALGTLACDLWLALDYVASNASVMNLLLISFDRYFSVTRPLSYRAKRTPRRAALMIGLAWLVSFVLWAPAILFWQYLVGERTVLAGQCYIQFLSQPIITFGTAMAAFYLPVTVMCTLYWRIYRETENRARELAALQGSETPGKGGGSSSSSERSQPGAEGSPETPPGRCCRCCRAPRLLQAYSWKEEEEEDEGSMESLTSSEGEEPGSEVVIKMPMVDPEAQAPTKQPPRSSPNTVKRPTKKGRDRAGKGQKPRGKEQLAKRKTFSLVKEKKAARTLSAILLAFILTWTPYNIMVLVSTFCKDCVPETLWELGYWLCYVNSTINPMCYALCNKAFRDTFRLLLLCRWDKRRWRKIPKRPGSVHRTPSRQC
Briefly: Human M1 calcium mobilization FLIPR assay. Particulars: hM1 expressed in CHO cells, intracellular Ca2+ release. In outline:
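CHO cells expressing the receptor, dye-loaded at 37°C for 60 min, read on FLIPR at 510-570 nm. Agonism taken from compound-induced Ca2+ rise (max RFU for M1); M3/M5 inhibition measured against 2 nM acetylcholine using max minus min RFU. 10-point threefold dilutions, sigmoidal fits.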

Experiment [2] concerns the target T2, hM3 (human Muscarinic receptor subtype 3) (Homo sapiens, UniProt P20309).
T2 construct: expressed in transfected cells; host or cells: CHO cells (Chinese hamster ovary cells, ATCC)
Briefly: Human M3 calcium mobilization FLIPR assay. Particulars: hM3 expressed in CHO cells, intracellular Ca2+ release, read-out: hM3 EC50. How it is done: (§1) Human M1, rat M1, human M3 and human M5 Calcium Mobilization FLIPR™ Assay
(§2) The compound activity in the present invention (EC50 or IC50) is measured using a 384 plate-based imaging assay that monitors drug induced intracellular Ca^2+ release in whole cells. Activation of hM1 (human Muscarinic receptor subtype 1, gene bank access NM_000738), rM1 (rat Muscarinic receptor subtype 1, gene bank access NM_080773), hM3 (human Muscarinic receptor subtype 3, gene bank access NM_000740NM_000740) and hM5 (human Muscarinic receptor subtype 5, gene bank access NM_0121258), receptors expressed in CHO cells (Chinese hamster ovary cells, ATCC) is quantified in a Molecular Devices FLIPR II™ instrument as an increase in fluorescent signal. Inhibition of hM3 and hM5 by compounds is determined by the decrease in fluorescent signal in response to 2 nM acetylcholine activation.
(§3) Prior to experiment, the cell culture medium is removed from the plates by inversion. […] Plates are incubated at 37° C. for 60 minutes prior to start the experiment. The incubation is terminated by washing the cells four times in assay buffer, leaving a residual 25 μl buffer per well. Cell plates are then transferred to the FLIPR, ready for compound additions.
(§4) The day of experiment, acetylcholine and compounds are diluted in assay buffer in three-fold concentration range (10 points serial dilution) for addition by FLIPR instrument. For all calcium assays, a baseline reading is taken for 10 seconds followed by the addition of 12.5 μl of compounds, resulting in a total well volume of 37.5 μl. Data is collected every second for 60 pictures and then every 6 seconds for 20 pictures prior to the addition of agonist. For hM3 and hM5, before agonist addition, a second baseline reading is taken for 10 seconds followed by the addition of 12.5 μl of agonist or buffer, producing a final volume of 50 μl. After agonist stimulation, the FLIPR continues to collect data every second for 60 pictures and then every 6 seconds for 20 pictures. The fluorescence emission is read using filter 1 (emission 510-570 nm) by the FLIPR on board CCD camera.
(§5) Calcium mobilization output data are calculated as the maximal relative fluorescence unit (RFU) minus the minimal value for both compound and agonist reading frame (except for hM1 and rM1 using only the maximal RFU). Data are analyzed using sigmoidal fits of a non-linear curve-fitting program (XLfit version 4.2.2 Excel add-in version 4.2.2 build 18 math 1Q version 2.1.2 build 18). All pEC50 and plC50 values are reported as arithmetic means ±standard error of mean of ‘n’ independent experiments.

Experiment [3] concerns the target T3, hM5 (human Muscarinic receptor subtype 5) (Homo sapiens, UniProt P08912).
T3 construct: expressed in transfected cells; host or cells: CHO cells (Chinese hamster ovary cells, ATCC)
T3 sequence (P08912 1-532): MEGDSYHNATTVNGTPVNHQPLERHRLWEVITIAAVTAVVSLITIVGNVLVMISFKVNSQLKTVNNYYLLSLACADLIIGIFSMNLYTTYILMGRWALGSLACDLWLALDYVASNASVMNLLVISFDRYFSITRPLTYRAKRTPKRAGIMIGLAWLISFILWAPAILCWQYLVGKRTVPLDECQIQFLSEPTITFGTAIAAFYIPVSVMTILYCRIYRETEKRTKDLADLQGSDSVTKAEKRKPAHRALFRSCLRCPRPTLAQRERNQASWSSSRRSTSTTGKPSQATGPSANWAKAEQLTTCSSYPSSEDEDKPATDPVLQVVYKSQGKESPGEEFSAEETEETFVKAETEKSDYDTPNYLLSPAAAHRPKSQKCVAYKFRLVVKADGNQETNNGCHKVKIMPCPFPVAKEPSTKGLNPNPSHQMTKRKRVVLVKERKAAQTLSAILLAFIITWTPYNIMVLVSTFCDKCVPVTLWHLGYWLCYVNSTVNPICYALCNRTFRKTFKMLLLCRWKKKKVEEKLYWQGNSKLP
Briefly: Human M5 calcium mobilization FLIPR assay. Particulars: hM5 expressed in CHO cells, intracellular Ca2+ release, read-out: hM5 EC50. How it is done: as §1, §2, §3, §4, §5

T2 sequence (P20309 whole entry): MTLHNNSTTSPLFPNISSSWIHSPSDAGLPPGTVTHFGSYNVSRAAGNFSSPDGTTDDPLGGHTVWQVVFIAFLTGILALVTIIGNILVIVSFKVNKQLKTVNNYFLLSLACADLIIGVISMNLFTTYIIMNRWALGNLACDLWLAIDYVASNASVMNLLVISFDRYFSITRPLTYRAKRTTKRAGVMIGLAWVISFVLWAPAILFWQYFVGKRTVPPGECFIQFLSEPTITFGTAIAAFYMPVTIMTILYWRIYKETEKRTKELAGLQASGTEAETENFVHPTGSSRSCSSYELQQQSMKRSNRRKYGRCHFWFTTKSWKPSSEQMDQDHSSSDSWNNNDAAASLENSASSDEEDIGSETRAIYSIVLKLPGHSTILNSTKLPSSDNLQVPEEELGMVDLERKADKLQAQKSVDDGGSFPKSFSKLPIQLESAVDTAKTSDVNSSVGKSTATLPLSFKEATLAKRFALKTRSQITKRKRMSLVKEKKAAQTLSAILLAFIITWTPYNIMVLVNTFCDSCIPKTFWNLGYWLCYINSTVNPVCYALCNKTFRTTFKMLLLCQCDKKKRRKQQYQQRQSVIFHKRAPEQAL

In the case of `CC1(N2CCC(n3c(=O)[nH]c4ccccc43)CC2)CCN(C(=O)OCCF)C1` (racemic) [Example 4, 2-fluoroethyl 3-methyl-3-(4-(2-oxo-2,3-dihydro-1H-benzo[d]imidazol-1-yl)piperidin-1-yl)pyrrolidine-1-carboxylate], the EC50 in experiment [1] (read-out: hM1 EC50) is 13.5 nM; in experiment [2], over 40000 nM; in experiment [3], over 9600 nM.
Take `CCOC(=O)N1CCC(C)(N2CCC(n3c(=O)[nH]c4cc(F)ccc43)CC2)C1` (single isomer, unassigned) [Example 7, ethyl 3-(4-(5-fluoro-2-oxo-2,3-dihydro-1H-benzo[d]imidazol-1-yl)piperidin-1-yl)-3-methylpyrrolidine-1-carboxylate]: the EC50 is under 6.6 nM in experiment [1] (read-out: hM1 EC50), over 40000 nM in experiment [2] and 3100 nM in experiment [3].
`Cc1ccc2c(c1)[nH]c(=O)n2C1CCN(C2(C)CCN(C(=O)OC(C)C)C2)CC1` (single isomer, unassigned) [Example 15, isopropyl 3-methyl-3-(4-(5-methyl-2-oxo-2,3-dihydro-1H-benzo[d]imidazol-1-yl)piperidin-1-yl)pyrrolidine-1-carboxylate]: the concentration giving a half-maximal response (EC50) in experiment [1] (read-out: hM1 EC50) was 94.9 nM; in experiment [2] it was over 40000 nM.
`CC#CCOC(=O)N1CCC(C)(N2CCC(n3c(=O)[nH]c4ccc(C)cc43)CC2)C1` (single isomer, unassigned) [Example 20, but-2-ynyl 3-methyl-3-(4-(6-methyl-2-oxo-2,3-dihydro-1H-benzo[d]imidazol-1-yl)piperidin-1-yl)pyrrolidine-1-carboxylate]: the results for the half-maximal effective concentration (EC50) in experiment [1] (read-out: hM1 EC50), in experiment [2] and in experiment [3] were 14.2 nM, 535 nM and 720 nM, respectively.
For the compound `CC1(N2CCC(n3c(=O)[nH]c4cc(F)ccc43)CC2)CCN(C(=O)OCCF)C1` (single isomer, unassigned) [Example 24, 2-fluoroethyl 3-(4-(5-fluoro-2-oxo-2,3-dihydro-1H-benzo[d]imidazol-1-yl)piperidin-1-yl)-3-methylpyrrolidine-1-carboxylate], the EC50 was 10.4 nM in experiment [1] (read-out: hM1 EC50), over 26500 nM in experiment [2] and 1570 nM in experiment [3].
In the same order, the values of `Cc1ccc2[nH]c(=O)n(C3CCN(C4(C)CCN(C(=O)OCCF)C4)CC3)c2c1` (single isomer, unassigned) [Example 28, 2-fluoroethyl 3-methyl-3-(4-(6-methyl-2-oxo-2,3-dihydro-1H-benzo[d]imidazol-1-yl)piperidin-1-yl)pyrrolidine-1-carboxylate] are 10 nM, over 24300 nM and 2650 nM.
In the same order, the values of `C#CCOC(=O)N1CCC(C)(N2CCC(n3c(=O)[nH]c4ccc(C)cc43)CC2)C1` (single isomer, unassigned) [Example 41, prop-2-ynyl 3-methyl-3-(4-(6-methyl-2-oxo-2,3-dihydro-1H-benzo[d]imidazol-1-yl)piperidin-1-yl)pyrrolidine-1-carboxylate] are 23.5 nM, over 40000 nM and over 40000 nM.
In the same order, the values of `C#CCOC(=O)N1CCC(C)(N2CCC(n3c(=O)[nH]c4ccc(C)cc43)CC2)C1` (single isomer, unassigned) [Example 43, prop-2-ynyl 3-methyl-3-(4-(6-methyl-2-oxo-2,3-dihydro-1H-benzo[d]imidazol-1-yl)piperidin-1-yl)pyrrolidine-1-carboxylate] are 2.5 nM, 553 nM and 205 nM.
As to `COC(=O)N1CCC(C)(N2CCC(n3c(=O)[nH]c4ccc(C)cc43)CC2)C1` (single isomer, unassigned) [Example 45, methyl 3-methyl-3-(4-(6-methyl-2-oxo-2,3-dihydro-1H-benzo[d]imidazol-1-yl)piperidin-1-yl)pyrrolidine-1-carboxylate], the results for the EC50 in experiment [1] (read-out: hM1 EC50), in experiment [2] and in experiment [3] were 14.1 nM, over 40000 nM and 1080 nM, respectively.
On to `COC(=O)N1CCC(C)(N2CCC(n3c(=O)[nH]c4cc(C)ccc43)CC2)C1` (single isomer, unassigned) [Example 48, methyl 3-methyl-3-(4-(5-methyl-2-oxo-2,3-dihydro-1H-benzo[d]imidazol-1-yl)piperidin-1-yl)pyrrolidine-1-carboxylate], for which the results for the EC50 in experiment [1] (read-out: hM1 EC50), in experiment [2] and in experiment [3] were 8.5 nM, over 40000 nM and over 40000 nM, respectively.
As for `CCOC(=O)N1CCC(C)(N2CCC(N3C(=O)Cc4cc(F)c(C)cc43)CC2)C1` (single isomer, unassigned) [Example 82, ethyl 3-(4-(5-fluoro-6-methyl-2-oxoindolin-1-yl)piperidin-1-yl)-3-methylpyrrolidine-1-carboxylate], the EC50 in experiment [1] (read-out: hM1 EC50) was 8.7 nM.
Take `COC(=O)N1CCC(C)(N2CCC(N3C(=O)Cc4cc(F)c(C)cc43)CC2)C1` (single isomer, unassigned) [Example 84, methyl 3-(4-(5-fluoro-6-methyl-2-oxoindolin-1-yl)piperidin-1-yl)-3-methylpyrrolidine-1-carboxylate]: the EC50 in experiment [1] (hM1 EC50 (nM)) was 7.7 nM.
For the compound `COC(=O)N1CCC(C)(N2CCC(n3c(=O)[nH]c4cc(F)ccc43)CC2)C1` (stereo not drawn) [Example 8, methyl 3-(4-(5-fluoro-2-oxo-2,3-dihydro-1H-benzo[d]imidazol-1-yl)piperidin-1-yl)-3-methylpyrrolidine-1-carboxylate], the EC50 in experiment [1] (read-out: hM1 EC50) worked out at 18.3 nM.
In the case of `C#CCOC(=O)N1CCC(C)(N2CCC(n3c(=O)[nH]c4cc(F)ccc43)CC2)C1` (stereo not drawn) [Example 11, prop-2-ynyl 3-(4-(5-fluoro-2-oxo-2,3-dihydro-1H-benzo[d]imidazol-1-yl)piperidin-1-yl)-3-methylpyrrolidine-1-carboxylate], the EC50 was 2 nM in experiment [1] (read-out: hM1 EC50) and 1130 nM in experiment [2].
On to `CCOC(=O)N1CCC(C)(N2CCC(n3c(=O)[nH]c4ccc(C)cc43)CC2)C1` (stereo not drawn) [Example 16, ethyl 3-methyl-3-(4-(6-methyl-2-oxo-2,3-dihydro-1H-benzo[d]imidazol-1-yl)piperidin-1-yl)pyrrolidine-1-carboxylate], for which, in experiment [1] (read-out: hM1 EC50), the concentration for a half-maximal effect (EC50) was 8.1 nM.
The same measure, in the same setting: in the case of `COC(=O)N1CCC(C)(N2CCC(n3c(=O)[nH]c4ccc(C)cc43)CC2)C1` (stereo not drawn) [Example 17, methyl 3-methyl-3-(4-(6-methyl-2-oxo-2,3-dihydro-1H-benzo[d]imidazol-1-yl)piperidin-1-yl)pyrrolidine-1-carboxylate] it was 9.7 nM.

For the origin of these results see patent US20090221642A1, “MUSCARINIC RECEPTOR AGONISTS, COMPOSITIONS, METHODS OF TREATMENT THEREOF, AND PROCESSES FOR PREPARATION THEREOF-176” (AstraZeneca AB, priority 2008, published 2009).
